Experimental data taken from patent publication US9907306B2, “Compositions and methods for controlling nematode pests” (Monsanto Technology LLC, priority 2010, dated 2018).

Tests used:
C. elegans = C. elegans well test (contact assay); assay type: cell-based; conditions: L1 worms, 20° C.
Procedure: C. elegans: Various compounds were tested for nematicidal activity against C. elegans using contact assays in wells. The assays were performed as described below. The test compounds were solubilized in DMSO at 10 mg/ml to create 100× stock solutions. A dilution series was created by diluting the stock solution with DMSO. For each well assay 4 ul of the appropriate dilution is added to a well of a test plate. A 400 ul aliquot of bacterial stock (in M9 buffer with ampicillin) is added to each well of the test plate. Worms are added and the test plate placed on a rotary shaker incubated at 20° C. Worms are examined and scored at 24 hrs, 48 hrs and 72 hours. L1 worms used in the assay are prepared by plating eggs on a plate without a bacterial feeding layer. The eggs hatch and arrest at the L1 stage. This L1 stage population is then used to create a stock for the experiments. A 25 ul aliquot of worms is added to each well in the assay.

[1] = test system: soybean cyst nematode (SCN); assay: SCN greenhouse soil assay on soybean plants; assay type: in vivo, H. glycines; conditions: 0 day treatment, 0.25 kg/ha rate, harvested 28 days after egg inoculation
Source text: Soybeans seeds are planted in 100% sand in two inch square plastic pots.
Chemical treatment is done when the soybeans show the first trifoliate beginning to emerge about 10 to 12 days after planting. At least four hours after chemical application the nematode soybean cyst nematode (SCN) eggs are applied and 28 days after the egg inoculation the test is harvested.
(§1) One milligram of chemistry per four pots is equal to one kilogram per hectare of chemical. A standard test uses four replications. For rates above 2 kg/ha, the desired amount of chemical is weighed into a 30 ml vial (example: 8 kg/ha rate=8 mg chemical in 30 ml vial). The chemical is dissolved in 2 ml of appropriate solvent, generally acetone. For rates below 2 kg/ha, 2 milligrams of chemistry is weighed into the vial and dissolved in 2 ml of the solvent. The appropriate amount of chemical concentrate is then pipetted into a separate 30 ml vial and solvent is added to bring the volume to 2 ml (example 0.5 kg/ha=0.5 ml of concentrate+1.5 ml solvent). Each dissolved concentrate is then brought to a total of 20 milliliters using 0.05% Triton X 100 surfactant solution.
(§2) Pots to be treated are moist but not saturated. To each of four pots, five milliliters of the appropriate chemical solution is pipetted to the media surface making sure to avoid contact with the base of the plant. Immediately following chemical application, using a mist nozzle, the pot surface is wetted sufficiently to saturate the pot watering in the chemistry. The chemical application is done in the morning.
(§3) Nematode eggs, either SCN or RKN, are added to distilled water to create a concentration of […] of water. At least four hours after chemical treatment (0 day testing) or 1 week later (7 day longevity testing) the eggs are applied to the treated pots plus non-treated check plants. A small hole about 1 cm deep is punched into the pot surface. One milliliter of the nematode egg slurry is pipetted into the hole. Immediately afterwards the hole is gently covered. Watering of the test plants is then restricted to only water as needed to prevent wilt for a period of 24 hours. After the 24 hour restricted watering, normal sub-irrigation watering is done for the duration of the test.

Meloidogyne incognita = assay: M. incognita miniaturized greenhouse assay (cucumber seedling in sand, root galling); assay type: in vivo; conditions: average of triplicate gall rating, scale 0=0-5%, 1=6-20%, 2=21-50%, 3=51-100% root mass galled, 10 to 12 days after inoculation
Procedure: The test compound is dissolved in an acetone solution and added to water. A sprouted cucumber seedling is placed into a vial with dry sand and the water-chemical solution is added immediately. Twenty four hours later Meloidogyne incognita eggs are added to the vials and 10 to 12 days later the roots are evaluated for nematode galling.
Cucumber seeds are sprouted for 3 days in moist paper towels. Acceptable sprouts should be 3 to 4 cm long with several lateral roots just emerging. Stock solutions of chemistry are prepared in a mixture of acetone and Triton X100 (412 mg in 500 mL) to a final concentration of 5 mg/mL. The chemical stock solution is then added to 10 mL deionized water plus 0.015% Triton X100 and mixed thoroughly. This is enough to test each condition in triplicate. Ten mL dry sand is added to each vial. At this time the solubility of the chemistry is visually determined and recorded as either ppt (large precipitates) or cloudy (fine precipitates). Seedlings are planted by tilting the vial and laying the seedling in the correct orientation so that the cotyledons are just above the sand and then tilting back to cover the radicles with sand. 3.3 ml water/chemical mix is added to each vial and the vials placed in racks under fluorescent light banks. The vials are inoculated two days after planting by adding 500 vermiform M. incognita eggs to each vial in 50 uL of deionized or spring water. The vials are then kept under the fluorescent lamps at ambient room temperature and watered as needed with 1 mL deionized water, usually twice during duration of test. Harvest of the cucumber plants is done 10 to 12 days after inoculation by washing sand off the roots. A root gall rating and visual phytotoxicity rating is assigned using the following scales: Gall rating scale (Gall: % root mass galled): 0=0-5%; 1=6-20%; 2=21-50%; and 3=51-100%. The average of the triplicate gall rating is then calculated: green=0.00-0.33 (no galls); yellow=0.67-1.33 (mild galling); orange=1.67-2.33 (moderate galling); red=2.67-3.00 (severe galling). Visual phytotoxicity scale is also assigned (Vis. tox; visual reduction in root mass compared to the control): rs1=mild stunting; rs2=moderate stunting; rs3=severe stunting.

H. contortus = H. contortus larval development assay; assay type: cell-based; conditions: at 72 hours; hatching and larval movement
Procedure: The assay was performed essentially as described in: Hubert J, Kerboeuf D. A new method for culture of larvae used in diagnosis of ruminant gastrointestinal strongylosis: comparison with fecal cultures. Can J Comp Med. 1984 48(1):63-71. H. contortus eggs were obtained from Myers Parasitology (Magnolia, Ky.). The test compounds were solubilized in DMSO to create […] stock solutions. 2 ul of compound at various concentrations followed by 200 ul of molten agar were mixed into the wells. Approximately 50 eggs were placed in the well and incubated for 24 hours. After this time, >50% of the eggs were hatched in DMSO controls. After 24 hr, 100 ul of growth medium (Earle's salt solution, 1% yeast extract, 0.9% saline, and sodium bicarbonate to pH 7) containing compound was added to allow larval feeding. After 48 hr in growth medium (total of 72 hours) the wells were evaluated for hatching and larval movement.

[2] = classification by the US Environmental Protection Agency; cited from earlier work
root knot nematode (RKN) = assay: RKN greenhouse soil assay on cucumber plants; assay type: in vivo, M. incognita; conditions: 7 day treatment, rated 14 days after egg inoculation
Source text: Cucumber seeds are planted in a sandy soil mixture in two inch square plastic pots. When the cotyledons are fully opened and just as the first leaf begins to emerge, usually 7 days after planting, chemistry for the 7-day treatment is applied. One week later the chemistry for the 0 day treatment is applied. Separate plants are used for each application. The plants are generally in the 1-2 leaf stage now. At least four hours after the chemistry application the pots are inoculated with root knot nematode (RKN) eggs. Plants are rated for galling 14 days after the egg inoculation.
as §1, §2, §3

[3] = 1 ppm, letters a-d mark separate tests

Row | Compound | EC50 (C. elegans; 1 day) | EC50 (C. elegans; 2 days) | EC50 (C. elegans; 3 days) | percent control (cyst reduction) relative to the control blank treatment [1] [%^] | gall ratings (Meloidogyne incognita; [3]) | gall ratings (Meloidogyne incognita; 8 ppm) | EC50 (H. contortus) | toxicity class [2] | percent control (galling reduction) relative to the control blank treatment (root knot nematode (RKN); 0.1 kg/ha rate) [%] | percent control (galling reduction) relative to the control blank treatment (root knot nematode (RKN); 0.25 kg/ha rate) [%]
1 | Cc1cc(Cl)ccc1-n1nnc(-c2ccco2)n1 [compound 3] | 0.8/0.8/0.8 ppm | 0.8/0.8/0.8 ppm | 0.8/0.8/0.8 ppm | 44 | 1.33 | 0 | <6.3 ppm |  |  | 
2 | Cn1cccc1-c1nnn(-c2ccccc2)n1 [compound 5] |  |  |  |  | 2.33 | 0.00 |  |  |  | 
3 | CNC(=O)O/N=C(\SC)C(=O)N(C)C [Oxamyl, reference compound] |  |  |  | 75 |  |  |  | Class I |  | 
4 | Clc1ccc(-n2nnc(-c3cccs3)n2)cc1 [compound 1] | 0.8 ppm | 0.8 ppm | 0.9 ppm | 24 | 0.67 | 0 | <6.3 ppm |  | 89 | 92
5 | c1ccc(-n2nnc(-c3cccs3)n2)cc1 [compound 2] | > 50 ppm | 0.8 ppm | 0.8 ppm | 52 | 0.67 | 0.33 | 6.3-25 ppm |  | 47 | 53
6 | Clc1ccc(-n2nnc(N3CCCC3)n2)cc1 [compound 4] |  |  |  |  | 1.33 | 0.33 |  |  |  | 
7 | c1ccc(-c2nnn(-c3cccs3)n2)cc1 [compound 6] |  |  |  |  | 1.33 | 0.00 |  |  |  | 
8 | c1ccc(-n2nnc(-n3cccc3)n2)cc1 [compound 7] |  |  |  |  | 1.67 | 0.33 |  |  |  | 
